The text below walks through data of patent publication US6552061B1, “Amino acid derivatives and anti-inflammatory agents” (Ajinomoto Co., Inc., priority 1998, dated 2003).

Holding throughout (assay type): cell-based
One experiment deals with NF-κB. The experiment is described as follows: Test for an Activity of Inhibiting NF-κB Activation (gel shift assay, UVB-irradiated human epidermal cells). To be noted: light or radiation study, read-out: inhibitory rate (%) of NF-κB activation; for inhibition at 10 µM: concentration 10 μM; for inhibition at 100 µM: concentration 100 μM; for inhibition at 20 µM: concentration 20 μM; for inhibition at 50 µM: concentration 50 μM; for inhibition at 1000 µM: concentration 1 mM; for inhibition at 2000 µM: concentration 2 mM. The procedure:
Test for an Activity of Inhibiting NF-κB Activation
(§1) Eighteen hours later, the culture solution was replaced with a phenol red-free medium. The cells were subjected to UV irradiation (UVB: 50 mJ/m^2)using Dermaray M-DMR-80 (supplied by Toshiba Iryo Yohin KK). After from 4 to 5 hours passed, the cells were recovered, and the nucleoproteins were extracted in a usual manner. With respect to the resulting nucleoproteins, NF-κB activated by gel shift assay was detected. The amount of NF-κB was determined by measuring a radioactivity of an NF-κB band using a bio-imaging analyzer BAS 2000 (supplied by Fuji Photo Film). The rate of inhibition of NF-κB activation on the test compound was calculated using formula (III).
Rate (%) of inhibition of NF-κB activation={1−(A1−A3)/(A2−A3)}×100 (III)
A1: radioactivity of an NF-κB band in the addition of the test compound
A2: radioactivity of an NF-κB band in the non-addition of the test compound
A3: radioactivity of an NF-κB band when the test compound was not added, nor was UV irradiation conducted
Background: A gel shift assay detects complexes by their altered migration in electrophoresis.

A further experiment concerns AP-1. The experiment in a line: Test for an Activity of Inhibiting AP-1 Activation (gel shift assay, UVA-irradiated human dermal fibroblasts). To be noted: AP1, light or radiation study, read-out: inhibitory rate (%) of AP-1 activation; for inhibition at 1 µM: concentration 1 μM; for inhibition at 5 µM: concentration 5 μM; for inhibition at 1000 µM: concentration 1 mM; for inhibition at 10 µM: concentration 10 μM; for inhibition at 20 µM: concentration 20 μM; for inhibition at 500 µM: concentration 0.5 mM. The procedure:
Test for an Activity of Inhibiting AP-1 Activation
as §1, with “The test compound was added to human dermal fibroblasts which had become confluent in a culture plate. Eighteen” for “Eighteen”, “(UVA: 20 J/cm^2) using” for “(UVB: 50 mJ/m^2)using”, “AP-1” for “NF-κB”, “(IV).” for “(III).”
Rate (%) of inhibition of AP-1 activation={1−(A4−A6)/(A5−A6)}×100 (IV)
A4: radioactivity of an AP-1 band in the addition of the test compound
A5: radioactivity of an AP-1 band in the non-addition of the test compound
A6: radioactivity of an AP-1 band when the test compound was not added, nor was UV irradiation conducted

Another experiment deals with IL-1α. The experiment in a line: Test for an Activity of Inhibiting IL-1α Expression (ELISA, UVB-irradiated human epidermal cells). As to conditions: light or radiation study, 24 h, read-out: inhibitory rate (%) of IL-1α expression; for inhibition at 10 µM: concentration 10 μM; for inhibition at 100 µM: concentration 100 μM; for inhibition at 50 µM: concentration 50 μM. The procedure: Test for an Activity of Inhibiting IL-1α Expression
(§2) The test compound was added to human epidermal cells which had become confluent in a culture plate. Eighteen hours later, the culture solution was replaced with a phenol red-free medium. The cells were subjected to UV irradiation (UVB: 50 mJ/cm^2) using Dermaray M-DMR-80 (supplied by Toshiba Iryo Yohin KK). After 24 hours passed, the culture solution was recovered, and the IL-1α concentration in the culture solution was measured using IL-1α·ELISA System (supplied by Amersham Corp.). The rate of inhibition of IL-1α expression on the test compound was calculated using formula (V).
Rate (%) of inhibition of IL-1α expression={1−(B1−B3)/(B2−B3)}×100 (V)
B1: IL-1α concentration in the addition of the test compound
B2: IL-1α concentration in the non-addition of the test compound
B3: IL-1α concentration when the test compound was not added, nor was UV irradiation conducted

The subject of the next experiment is collagenase. The experiment is described as follows: Test for an Activity of Inhibiting Collagenase Expression (MMP-1 ELISA, UVA-irradiated human dermal fibroblasts). As to conditions: Fibroblast, light or radiation study, 24 h, read-out: inhibitory rate (%) of collagenase expression; for inhibition at 1 µM: concentration 1 μM; for inhibition at 1000 µM: concentration 1 mM; for inhibition at 10 µM: concentration 10 μM; for inhibition at 100 µM: concentration 0.1 mM; for inhibition at 500 µM: concentration 0.5 mM. The procedure:
Test for an Activity of Inhibiting Collagenase Expression
as §2, with “dermal fibroblasts” for “epidermal cells”, “(UVA; 20 J/cm^2)” for “(UVB: 50 mJ/cm^2)”, “collagenase” for “IL-1α”, “MMP-1α·ELISA” for “IL-1α·ELISA”, “(VI).” for “(V).”
Rate (%) of inhibition of collagenase expression={1−(B4−B6)/(B5−B6)}×100 (VI)
B4: collagenase concentration in the addition of the test compound
B5: collagenase concentration in the non-addition of the test compound
B6: collagenase concentration when the test compound was not added, nor was UV irradiation conducted

On to `CCCCCCCCCCCCCCCCCCOC(=O)[C@H](C)NCc1ccccc1O` [N-(2-hydroxybenzyl)-L-alanine stearyl ester], for which the inhibition at 10 µM in the experiment with NF-κB came out at 31%; in the experiment on IL-1α, 25%. The results for the inhibition at 1 µM in the experiment with AP-1, in the experiment on IL-1α (concentration 1 μM) and in the experiment on collagenase were 20%, 25% and 57%, respectively. For the same compound, the inhibition at 5 µM in the experiment with AP-1 amounted to 48%.
Regarding `CC(=O)Oc1ccccc1C(=O)O` [aspirin, reference compound], the inhibition at 1000 µM was -4% in the experiment with AP-1 and -197% with collagenase. Besides, the inhibition at 5000 µM in the experiment on AP-1 (concentration 5 mM) turned out to be 14%.
As to `CCCCCCCCCCCCOC(=O)[C@H](C)NCc1ccccc1O` [N-(2-hydroxybenzyl)-L-alanine lauryl ester], the inhibition at 10 µM in the experiment on NF-κB came out at 20%; with IL-1α it was 23%; in the experiment on collagenase, 58%. Moreover, the inhibition at 100 µM with NF-κB stood at 81%; in the experiment on IL-1α, 72%. The inhibition at 10000 µM in the experiment with AP-1 (concentration 10 mM) was 68%.
In the case of `CCCCCCCCCCCCNC(=O)[C@H](C)NCc1ccccc1O` [N-(2-hydroxybenzyl)-L-alanine lauryl amide], in the experiment with NF-κB, the inhibition at 10 µM turned out to be 53% and the inhibition at 20 µM was 65%. Also, in the experiment with AP-1, the inhibition at 10 µM was found to be 57% and the inhibition at 20 µM turned out to be 56%. In the experiment with IL-1α, the inhibition at 10 µM turned out to be 69% and the inhibition at 50 µM came out at 73%. Further, the inhibition at 1 µM in the experiment with collagenase stood at 57%.
With `CCCCCCCCCCCCNC(=O)[C@@H]1CCC(=O)N1Cc1ccccc1O` [N-(2-hydroxybenzyl)-L-pyroglutamic acid lauryl amide], the inhibition at 50 µM in the experiment with NF-κB is 75%; in the experiment on IL-1α, 28%; in the experiment on collagenase (concentration 50 μM) it was 52%. In addition, the inhibition at 100 µM was found to be 74% with NF-κB and 42% in the experiment with AP-1 (concentration 100 μM). The values for the inhibition at 10 µM in the experiment on IL-1α and in the experiment with collagenase were 25% and 23%, respectively.
For `CCCCCCCCCCCCNC(=O)[C@H](Cc1ccc(O)cc1)NCc1ccccc1O` [N-(2-hydroxybenzyl)-L-tyrosine lauryl amide], the inhibition at 10 µM with NF-κB turned out to be 39%; in the experiment with AP-1, 40%; with IL-1α, 56%; in the experiment on collagenase, 84%. For the same compound, in the experiment with AP-1, the inhibition at 20 µM came to 55%. For the same compound, the inhibition at 1 µM in the experiment with collagenase turned out to be 42%.
For `CCNC(=O)[C@H](Cc1ccccc1)NCc1ccccc1O` [N-(2-hydroxybenzyl)-L-phenylalanine ethyl amide], the figures for the inhibition at 500 µM in the experiment with NF-κB (concentration 0.5 mM), with AP-1 and with collagenase were 102%, 34% and 27%, respectively. Further, the inhibition at 1000 µM is 47% in the experiment with NF-κB and 61% in the experiment on AP-1. Besides, the inhibition at 100 µM with collagenase amounted to 32%.
As for `CCCCCCCCCCCCOC(=O)[C@H](Cc1ccc(O)cc1)NCc1ccccc1O` [N-(2-hydroxybenzyl)-L-tyrosine lauryl ester], the inhibition at 5 µM in the experiment on NF-κB (concentration 5 μM) was 20%. Besides, the inhibition at 10 µM in the experiment on NF-κB came out at 43%; in the experiment with AP-1, 45%; with collagenase, 61%. Further, in the experiment with AP-1, the inhibition at 1 µM turned out to be 19%.
Regarding `CCCCCCCCCCCCCCCCCCNC(=O)[C@H](C)NCc1ccccc1O` [N-(2-hydroxybenzyl)-L-alanine stearyl amide], the inhibition at 1 µM with AP-1 and in the experiment on collagenase was 72% throughout. Further, the inhibition at 5 µM with AP-1 came to 47%; with IL-1α (concentration 5 μM), 30%. In addition, the inhibition at 10 µM in the experiment on IL-1α is 77%.
`CCCCCCCCCCCCNC(=O)[C@H](CC(C)C)NCc1ccccc1O` [N-(2-hydroxybenzyl)-L-leucine lauryl amide]: the inhibition at 10 µM in the experiment on NF-κB is 40%; with collagenase, 60%. For the same compound, the values for the inhibition at 50 µM in the experiment on NF-κB and in the experiment on IL-1α were 89% and 79%, respectively. Further, in the experiment with IL-1α (concentration 20 μM), the inhibition at 20 µM was 27%. The inhibition at 1 µM in the experiment with collagenase is 37%.
Turning to `CCOC(=O)[C@H](Cc1c[nH]cn1)NCc1ccccc1O` [N-(2-hydroxybenzyl)-L-histidine ethyl ester], in the experiment on NF-κB, the inhibition at 1000 µM amounted to 69% and the inhibition at 2000 µM turned out to be 72%. Also, in the experiment with AP-1, the inhibition at 500 µM worked out at 20% and the inhibition at 1000 µM was found to be 38%. Moreover, in the experiment with collagenase, the inhibition at 100 µM turned out to be 44% and the inhibition at 1000 µM came to 51%.
In the case of `CCCCCCCCCCCCOC(=O)[C@H](CC(C)C)NCc1ccccc1O` [N-(2-hydroxybenzyl)-L-leucine lauryl ester], in the experiment with NF-κB, the inhibition at 10 µM is 21% and the inhibition at 20 µM worked out at 23%. For the same compound, the inhibition at 10 µM with collagenase was 21%.
`C[C@@H]1C[C@H]2[C@@H]3CCC4=CC(=O)C=C[C@]4(C)[C@@]3(F)[C@@H](O)C[C@]2(C)[C@@]1(O)C(=O)CO` [dexamethasone, reference compound]: in the experiment with AP-1, the inhibition at 1 µM stood at 39% and the inhibition at 10 µM stood at 34%. Besides, in the experiment with IL-1α, the inhibition at 10 µM is 48% and the inhibition at 100 µM worked out at 65%. Further, in the experiment on collagenase, the inhibition at 1 µM turned out to be 27% and the inhibition at 10 µM came out at 53%.
As for `CCCCCCCCCCCCOC(=O)[C@H](CCCNC(=N)N)NCc1ccccc1O` [N-(2-hydroxybenzyl)-L-arginine lauryl ester], in the experiment with collagenase, the inhibition at 10 µM stood at 52%.
In the case of `CCOC(=O)[C@@H](C)NCc1ccccc1O` [N-(2-hydroxybenzyl)-D-alanine ethyl ester], in the experiment on NF-κB, the inhibition at 1000 µM came to 90% and the inhibition at 2000 µM was found to be 87%. Further, in the experiment on collagenase, the inhibition at 500 µM amounted to 108%.
